For 22 molecules, EC50 results are on record in US12595258B2, “Heterocyclic derivatives, pharmaceutical compositions and their use in the treatment or amelioration of cancer” (TOLREMO THERAPEUTICS AG, priority 2022, dated 2026).

SMILES strings stand for the structures.

Test [1] deals with multiple myeloma cell line OPM-2. Kind of test: Multiple myeloma cellular efficacy (PrestoBlue cell proliferation/survival assay). It counts as cell-based. The note with it: Homo sapiens, 96 h; OPM-2 cells, 4 days treatment, PrestoBlue signal relative to vehicle; read-out: Assay 1. As for the experimental part: Multiple Myeloma Cellular Efficacy:
10000 OPM-2 (ACC50; DSMZ) were plated into wells of a 384 well plate (Greiner 781090). Cells were treated for 4 days with a dose range of compound or vehicle. At the end of the experiment cells were stained directly with PrestoBlue (ThermoFisher Scientific; A13262) for 2 hours at 37° C. in a humidified incubator according to manufactor's instruction. To assess the relative cell number the PrestoBlue signal was measured using either a TecanM1000Pro reader or a Tecan Sparks reader following the manufactor's instructions. Background (no cells) values were subtracted and set in relation to the vehicle control. To assess the EC50 of each compound the relative fluorescence value was plotted against the compound concentration after log transformation. Data were fitted in a nonlinear manner with a variable slope (four parameters) using graphpad prism software. Cellular efficacy of compounds was evaluated in the multiple myeloma cell line OPM-2 using the cell proliferation/survival assay PrestoBlue. EC50 values are classified as indicated below.

Another test concerns the target T1, CBP bromodomain (Homo sapiens, UniProt Q92793).
T1 construct: purchased Cayman chemicals 600850
Kind of test: CBP bromodomain binding assay (TR-FRET). The note with it: TR-FRET (Cayman kit 600850), 1 hour incubation at room temperature; read-out: Assay 2. As for the experimental part:
CBP Bromodomain Binding Assay (TR-FRET)
Compounds solutions of 10 mM in DMSO were pre-diluted in DSMO to 25× stock solutions in DMSO. These were then diluted down to 4× in assay buffer. A dilution series in assay buffer was performed keeping the DMSO concentration stable. 5 μl compound in assay buffer was transferred into the assay plate (provided by assay kit) and the TR-FRET assay Cayman chemicals; 600850) was performed using the provider's instructions. After 1 hour incubation at room temperature in the darks, assay plates were read in a Tecan M1000 plate reader or a Tecan Sparks reader using the TR-FRET mode (top read; excitation 340 nm bandwidth 20 nM; emission 620 nm bandwidth 7 nM; gain optimal determined for the first well, number of flashes: 5; flash frequency 100 Hz; integration time: 500 μs, lag time: 100 μs, room temperature). The TR-FRET ratio was calculated by dividing 670 nm emission by 620 nm emission. Values were log transformed and non-linear regression with variable slope (4 parameters) was used to fit values to a dose-response curve to evaluate EC50 values.
(TR-FRET usually uses a lanthanide donor and a delayed reading to cut background.)

T1 sequence (Q92793 1085-1192 limits assumed): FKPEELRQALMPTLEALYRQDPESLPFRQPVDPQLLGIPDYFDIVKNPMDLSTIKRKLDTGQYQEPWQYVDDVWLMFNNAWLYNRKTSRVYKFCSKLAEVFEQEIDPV

As for `CC(=O)N1C[C@H](c2nc(Nc3cc(C)cc(-c4cn(C)nn4)c3)cc(-c3cnccn3)n2)CC[C@@H]1C` [Compound 014, 1-((2S,5R)-2-methyl-5-(4-((3-methyl-5-(1-methyl-1H-1,2,3-triazol-4-yl)phenyl)amino)-6-(pyrazin-2-yl)pyrimidin-2-yl)piperidin-1-yl)ethan-1-one], the values for the EC50 (in test [1]; at CBP bromodomain) were 0.005 µM and 0.007 µM, respectively.

Consider `CC(=O)N1C[C@H](c2nc(Nc3cc(F)cc(-c4c[nH]nn4)c3)cc(-c3cnccn3)n2)CC[C@@H]1C` [Compound 009, 1-((2S,5R)-5-(4-((3-fluoro-5-(1H-1,2,3-triazol-4-yl)phenyl)amino)-6-(pyrazin-2-yl)pyrimidin-2-yl)-2-methylpiperidin-1-yl)ethan-1-one], for which, in test [1], the EC50 came to 0.037 µM.

As for `CC(=O)N1C[C@H](c2nc(Nc3cccc(-c4nnn(C)c4C)c3)cc(-c3cnccn3)n2)CC[C@@H]1C` [Compound 015, 1-((2S,5R)-5-(4-((3-(1,5-dimethyl-1H-1,2,3-triazol-4-yl)phenyl)amino)-6-(pyrazin-2-yl)pyrimidin-2-yl)-2-methylpiperidin-1-yl)ethan-1-one], in test [1], the EC50 was 0.109 µM. `CC(=O)N1C[C@H](c2nc(Nc3cccc(-c4cn(C(C)C)nn4)c3)cc(-c3cnccn3)n2)CC[C@@H]1C` [Compound 007, 1-((2S,5R)-5-(4-((3-(1-isopropyl-1H-1,2,3-triazol-4-yl)phenyl)amino)-6-(pyrazin-2-yl)pyrimidin-2-yl)-2-methylpiperidin-1-yl)ethan-1-one]: the EC50 in test [1] is 0.05 µM.

As to `CC(=O)N1C[C@H](c2nc(Nc3cc(F)cc(-c4nnc(C)o4)c3)cc(-c3cnccn3)n2)CC[C@@H]1C` [Compound 006, 1-((2S,5R)-5-(4-((3-fluoro-5-(5-methyl-1,3,4-oxadiazol-2-yl)phenyl)amino)-6-(pyrazin-2-yl)pyrimidin-2-yl)-2-methylpiperidin-1-yl)ethan-1-one], the EC50 in test [1] worked out at 0.006 µM; at CBP bromodomain, 0.003 µM. Take `CC(=O)N1C[C@H](c2nc(Nc3cccc(-c4cnn(C)c4C)c3)cc(-c3cnccn3)n2)CC[C@@H]1C` [Compound 005]: the EC50 in test [1] was determined as 0.193 µM. Consider `CC(=O)N1C[C@H](c2nc(Nc3cccc(-c4cn(C)nn4)c3F)cc(-c3cnccn3)n2)CC[C@@H]1C` [Compound 019, 1-((2S,5R)-5-(4-((2-fluoro-3-(1-methyl-1H-1,2,3-triazol-4-yl)phenyl)amino)-6-(pyrazin-2-yl)pyrimidin-2-yl)-2-methylpiperidin-1-yl)ethan-1-one], for which the results for the EC50 (in test [1]; at CBP bromodomain) were 0.001 µM and 0.006 µM, respectively. For `CC(=O)N1C[C@H](c2nc(Nc3cccc(-c4cn(C)nc4C)c3)cc(-c3cnccn3)n2)CC[C@@H]1C` [Compound 004], the EC50 at CBP bromodomain amounted to 0.128 µM.

With `CC(=O)N1C[C@H](c2nc(Nc3cccc(-c4cn(C)nn4)c3C)cc(-c3cnccn3)n2)CC[C@@H]1C` [Compound 013], the EC50 in test [1] was found to be 0.032 µM. Regarding `CC(=O)N1C[C@H](c2nc(Nc3cc(Cl)cc(-c4cn(C)nn4)c3)cc(-c3cnccn3)n2)CC[C@@H]1C` [Compound 021, 1-((2S,5R)-5-(4-((3-chloro-5-(1-methyl-1H-1,2,3-triazol-4-yl)phenyl)amino)-6-(pyrazin-2-yl)pyrimidin-2-yl)-2-methylpiperidin-1-yl)ethan-1-one], the EC50 in test [1] amounted to 0.005 µM. On to `CC(=O)N1C[C@H](c2nc(Nc3cc(Cl)cc(-c4c[nH]nn4)c3)cc(-c3cnccn3)n2)CC[C@@H]1C` [Compound 010, 1-((2S,5R)-5-(4-((3-chloro-5-(1H-1,2,3-triazol-4-yl)phenyl)amino)-6-(pyrazin-2-yl)pyrimidin-2-yl)-2-methylpiperidin-1-yl)ethan-1-one], for which the EC50 in test [1] is 0.045 µM. In the case of `CC(=O)N1C[C@H](c2nc(Nc3cccc(-c4cnnn4C)c3)cc(-c3cnccn3)n2)CC[C@@H]1C` [Compound 017, 1-((2S,5R)-2-methyl-5-(4-((3-(1-methyl-1H-1,2,3-triazol-5-yl)phenyl)amino)-6-(pyrazin-2-yl)pyrimidin-2-yl)piperidin-1-yl)ethan-1-one], the EC50 in test [1] was 0.458 µM.

As for `CC(=O)N1C[C@H](c2nc(Nc3cc(-c4cn(C)nn4)ccc3F)cc(-c3cnccn3)n2)CC[C@@H]1C` [Compound 020], the EC50 in test [1] was 0.864 µM. For the molecule `CC(=O)N1C[C@H](c2nc(Nc3cc(F)cc(-c4cn(C)cn4)c3)cc(-c3cnccn3)n2)CC[C@@H]1C` [Compound 001, 1-((2S,5R)-5-(4-((3-fluoro-5-(1-methyl-1H-imidazol-4-yl)phenyl)amino)-6-(pyrazin-2-yl)pyrimidin-2-yl)-2-methylpiperidin-1-yl)ethan-1-one], the EC50 amounted to 0.001 µM in test [1] and 0.007 µM on CBP bromodomain.

For the molecule `CC(=O)N1C[C@H](c2nc(Nc3ccc(C)c(-c4cn(C)nn4)c3)cc(-c3cnccn3)n2)CC[C@@H]1C` [Compound 012, 1-((2S,5R)-2-methyl-5-(4-((4-methyl-3-(1-methyl-1H-1,2,3-triazol-4-yl)phenyl)amino)-6-(pyrazin-2-yl)pyrimidin-2-yl)piperidin-1-yl)ethan-1-one], in test [1], the EC50 is 0.261 µM. Same read-out and setting: the result for `CC(=O)N1C[C@H](c2nc(Nc3cccc(-c4cn(C5COC5)nn4)c3)cc(-c3cnccn3)n2)CC[C@@H]1C` [Compound 008] reads 0.028 µM; that for `CC(=O)N1C[C@H](c2nc(Nc3cccc(-c4nn(C)nc4C)c3)cc(-c3cnccn3)n2)CC[C@@H]1C` [Compound 016, 1-((2S,5R)-5-(4-((3-(2,5-dimethyl-2H-1,2,3-triazol-4-yl)phenyl)amino)-6-(pyrazin-2-yl)pyrimidin-2-yl)-2-methylpiperidin-1-yl)ethan-1-one], 0.142 µM. Regarding `CCn1cc(-c2cccc(Nc3cc(-c4cnccn4)nc([C@@H]4CC[C@H](C)N(C(C)=O)C4)n3)c2)nn1` [Compound 011, 1-((2S,5R)-5-(4-((3-(1-ethyl-1H-1,2,3-triazol-4-yl)phenyl)amino)-6-(pyrazin-2-yl)pyrimidin-2-yl)-2-methylpiperidin-1-yl)ethan-1-one], the EC50 in test [1] came to 0.006 µM.

With `CC(=O)N1C[C@H](c2nc(Nc3cc(F)cc(-c4cn(C5COC5)nn4)c3)cc(-c3cnccn3)n2)CC[C@@H]1C` [Compound 022, 1-((2S,5R)-5-(4-((3-fluoro-5-(1-(oxetan-3-yl)-1H-1,2,3-triazol-4-yl)phenyl)amino)-6-(pyrazin-2-yl)pyrimidin-2-yl)-2-methylpiperidin-1-yl)ethan-1-one], the EC50 in test [1] worked out at 0.013 µM. Consider `CC(=O)N1C[C@H](c2nc(Nc3ccc(F)c(-c4cn(C)nn4)c3)cc(-c3cnccn3)n2)CC[C@@H]1C` [Compound 018, 1-((2S,5R)-5-(4-((4-fluoro-3-(1-methyl-1H-1,2,3-triazol-4-yl)phenyl)amino)-6-(pyrazin-2-yl)pyrimidin-2-yl)-2-methylpiperidin-1-yl)ethan-1-one], for which the values for the EC50 (in test [1]; on CBP bromodomain) were 0.063 µM and 0.022 µM, respectively. For the molecule `CC(=O)N1C[C@H](c2nc(Nc3cc(F)cc(-c4cn[nH]c4)c3)cc(-c3cnccn3)n2)CC[C@@H]1C` [Compound 002, 1-((2S,5R)-5-(4-((3-fluoro-5-(1H-pyrazol-4-yl)phenyl)amino)-6-(pyrazin-2-yl)pyrimidin-2-yl)-2-methylpiperidin-1-yl)ethan-1-one], the EC50 in test [1] came out at 0.025 µM; on CBP bromodomain it was 0.023 µM.

Regarding `CC(=O)N1C[C@H](c2nc(Nc3cccc(-c4cn(C5COC5)nn4)c3F)cc(-c3cnccn3)n2)CC[C@@H]1C` [Compound 023], the figures for the EC50 (in test [1]; at CBP bromodomain) were 0.007 µM and 0.065 µM, respectively.
